{
  "source": "patent US6482654B1",
  "about": "“Method of detecting shikimic acid” (Syngenta Limited, priority 2000, dated 2002)",
  "test_system": "plants",
  "experiment": "Shikimic acid/shikimate accumulation in glyphosate-treated plants, periodate/sulfite chromophore assay",
  "assay_type": "in vivo",
  "conditions": "plants treated with a lethal amount of glyphosate; 5-10 μL of extract of about 150 mg leaf tissue in 8-fold (w/v) 0.25N hydrochloric acid; 1 ml final solution; control about 0.1 AU",
  "protocol": "In the performance of the methods of the invention, for detection of the chromophore, it is preferable to have an absorbance of at least 0.05 absorbance units (AU) for the untreated control plant test sample and an absorbance of less than 2.0 AU for the test sample with the greatest amount of shikimic acid/shikimate in order to obtain optimal results from spectrophotometric measurement of the chromophore. […] After reaction with the periodate reagent and quenching by 0.5 ml of a mixture comprising sulfite and sodium hydroxide, there was 1 ml of solution with an absorbance of about 1.8 AU, while an untreated control plant gave an absorbance of about 0.1 AU.",
  "data": [
    {"smiles": "O=C(O)CNCP(=O)(O)O", "note": "[glyphosate, N-(phosphonomethyl) glycine]", "values": [
      {"measurement": "absorbance of the chromophore (shikimic acid/shikimate accumulated)", "result": "about 1.8 AU"}
    ]}
  ]
}
